Conditions: nicotine:tartaric acid 1:2 molar ratio; in PG, VG or any mixture of PG and VG at ambient conditions
Description: As used herein, weight percentage (w/w) refers to the weight of the individual component over the weight of the total formulation.

CN1CCCC1c1cccnc1.O=C(O)C(O)C(O)C(=O)O (stereo not shown) [nicotine bitartrate]
concentration at which no solution is produced: ≥ 0.5 % (w/w) nicotine

From US12156533B2, “Nicotine salt formulations for aerosol devices and methods thereof” (JUUL Labs, Inc., priority 2013, dated 2024)
